As usually defined, the IC50 is the concentration needed to halve the response being measured.

Structures are written as SMILES. Values joined by “and” are separate entries in the source; they are usually repeats but may differ in a detail not shown here. Equal entries are not always repeated. “Also recorded” adds a separate entry of the source. Where two headings read alike, the source gives them in different places.

Consider four molecules from US6126917A, “Epidermal growth factor receptor binding compounds for positron emission tomography” (Hadasit Medical Research Services and Development Ltd., priority 1999, dated 2000).

One data set deals with T1, EGFR-TK (Homo sapiens, UniProt P00533).
T1 construct: As a source of EGFR-TK, A431 human epidermoid carcinoma cell lysate was used; endogenous in cells; host or cells: A431 human epidermoid carcinoma cells (Triton X-100 lysate, EGFR captured by monoclonal antibody m108)
T1 sequence (P00533 25-1210): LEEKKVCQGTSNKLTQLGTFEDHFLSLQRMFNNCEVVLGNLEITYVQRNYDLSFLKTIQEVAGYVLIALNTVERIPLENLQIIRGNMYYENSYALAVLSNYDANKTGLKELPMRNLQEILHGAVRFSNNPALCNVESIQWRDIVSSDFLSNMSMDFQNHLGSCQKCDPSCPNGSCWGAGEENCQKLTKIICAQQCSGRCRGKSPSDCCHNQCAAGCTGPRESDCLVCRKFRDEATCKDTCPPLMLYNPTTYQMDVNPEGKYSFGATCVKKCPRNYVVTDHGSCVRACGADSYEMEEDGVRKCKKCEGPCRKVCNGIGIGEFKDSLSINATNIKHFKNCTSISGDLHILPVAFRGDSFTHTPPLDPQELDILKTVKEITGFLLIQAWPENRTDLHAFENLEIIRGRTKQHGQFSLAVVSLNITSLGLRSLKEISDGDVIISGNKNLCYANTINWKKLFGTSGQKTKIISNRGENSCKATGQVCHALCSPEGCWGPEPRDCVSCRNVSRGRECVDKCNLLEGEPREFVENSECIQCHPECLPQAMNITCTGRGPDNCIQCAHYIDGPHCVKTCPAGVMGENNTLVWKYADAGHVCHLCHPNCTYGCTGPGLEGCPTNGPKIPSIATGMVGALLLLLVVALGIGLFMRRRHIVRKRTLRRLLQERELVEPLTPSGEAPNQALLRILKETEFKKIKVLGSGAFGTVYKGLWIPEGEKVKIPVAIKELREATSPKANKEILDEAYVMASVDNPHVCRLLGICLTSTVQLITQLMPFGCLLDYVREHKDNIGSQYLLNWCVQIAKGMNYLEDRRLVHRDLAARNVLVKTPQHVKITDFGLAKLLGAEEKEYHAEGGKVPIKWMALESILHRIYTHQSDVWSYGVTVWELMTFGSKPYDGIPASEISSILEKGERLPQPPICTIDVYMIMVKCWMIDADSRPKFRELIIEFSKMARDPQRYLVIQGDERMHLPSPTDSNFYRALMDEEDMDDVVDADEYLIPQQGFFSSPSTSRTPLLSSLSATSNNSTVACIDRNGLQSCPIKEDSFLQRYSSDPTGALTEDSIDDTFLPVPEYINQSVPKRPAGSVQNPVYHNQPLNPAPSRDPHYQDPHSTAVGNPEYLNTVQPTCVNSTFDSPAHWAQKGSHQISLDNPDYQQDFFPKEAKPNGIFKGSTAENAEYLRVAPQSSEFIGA
As to the kind of experiment: EGFR-TK autophosphorylation inhibition (ELISA assay). In kind it is biochemical. The method, then:
Autophosphorylation Inhibition Experiments:
EGFR-TK source: As a source of EGFR-TK, A431 human epidermoid carcinoma cell lysate was used. A431 cells were grown in DMEM containing 10% fetal calf serum and antibiotics penicillin and streptomycin). After several days, the cells were removed from the flasks by incubation at 37° C. with PBS/i mM EDTA buffer for 1 hour. […] Cell lysate was obtained with a further centrifugation (10,000 rpm×10 minutes at 4° C.), and the supernatant was collected and frozen at -70° C. in aliquots.
ELISA assay: EGFR-TK autophosphorylation IC50 values were obtained by means an ELISA assay. All the following incubations were performed at room temperature and with constant shaking. After each step the plate was washed with water (5×) and TBST buffer (1×). The final volume for each well was 150 μl. A Coming 96 well ELISA plate was coated with monoclonal anti EGFR antibody m108 (Sugen Inc.) diluted in PBS (pH 8.2), and kept overnight at 4° C.
After removing the unbound m108, the plate was washed and PBS containing 5% milk (1% fat) was added for the blocking (25 minutes). One aliquot of A431 cell lysate was thawed and added to the plate.
After 25 minutes, seven different concentrations of each inhibitor were added, and for each case one well was left as a control. All inhibitors were diluted in TBS/DMSO and the final concentration of DMSO was 0.05% in each well (including the controls).
After 25 minutes, and without washing the plate, ATP/MnCl2 solution was added in each well. The final concentration was 3 μM ATP/5 mM MnCl2. In this step the temperature was kept at 26° C. and the plate was under constant shaking. The incubation with ATP/MnCl2 was for 5 minutes.
Then, to stop the phosphorylation reaction, EDTA was added (pH 8, final concentration in each well 20 mM) and after 1 minute all the plate was washed.
Afterward, polyclonal anti-phosphotyrosine serum (Sugen, Inc.) was added (dilution of antibody in TBST containing 5% milk). The incubation was for 45 minutes.
For the calorimetric detection of phosphotyrosine in EGFR-TK, TAGO anti-rabbit peroxidase conjugate antibody (Sugen, Inc.) was added in TBST/5% milk solution (45 minutes).
After washing, the colorimetric reaction was performed by adding ABTS/H2 O2 in citrate-phosphate buffer.
The analysis of the data was performed with "Regression" software.
Since the exact concentrations of m108 in the stock solution and EGFR-TK in the cell lysate were unknown, an experiment was performed to determine the optimal dilution of m108 stock and lysate. Stock m108 (approx. 0.2-0.5 μg/μl) was diluted 1:400, 1:600, 1:800 and 1:1000 with PBS, while A431 cell lysate was diluted 1:2, 1:4, 1:6, 1:8, and 1:10.
(An ELISA detects its analyte on a solid surface through an enzyme-linked reagent.)

The conditions of data set [1]: cited from earlier work.
Where [2] appears, read: average ± SEM, A431 cell lysate, 3 μM ATP/5 mM MnCl2, Table 1, read-out: Autophosphorylation IC50.
The mark [3] stands for this setting: read-out: IC50 toward epidermal growth factor receptor tyrosine kinase activity (autophosphorylation).

For `COc1cc2ncnc(Nc3ccc(F)cc3)c2cc1OC` [Compound 1, 4-[(4-Fluorophenyl)amino]-6,7-dimethoxyquinazoline], the IC50 at EGFR-TK (setting [2]) is 76.1 ± 3.2 nM; at EGFR-TK (setting [3]), 76 nM and 76.1 nM.
Turning to `COc1cc2ncnc(Nc3cc(F)cc(C(F)(F)F)c3)c2cc1OC` [Compound 3, ^4-[(3-Fluoro-5-trifluoromethylphenyl)amino]-6,7-dimethoxyquinazoline], the IC50 was 116 ± 14 nM on EGFR-TK (setting [2]) and 116 nM at EGFR-TK (setting [3]).
`COc1cc2ncnc(Nc3cc(Cl)c(Cl)cc3F)c2cc1OC` [Compound 4, 4-[(3,4-Dichloro-6-fluorophenyl)amino]-6,7-dimethoxyquinazoline]: the “EGFR-TK autophosphorylation inhibitor potency” value on EGFR-TK was “most potent inhibitor; also recorded: very potent EGFR-TK autophosphorylation inhibitor”. The IC50 was determined as 0.22 ± 0.18 nM at EGFR-TK (setting [2]) and 0.22 nM on EGFR-TK (setting [3]).
With `COc1cc2ncnc(Nc3cccc(Br)c3)c2cc1OC` [PD 153035], the “plasma level after approximately 3 hours, % of the maximum” value in data set [1] (of maximum, after approximately 3 hours) was 2%. In data set [1] (two identified as 6- and 7-monodemethylated derivatives), the metabolism result is reported as “metabolism to four compounds”.
